A short description of data set [1]: Pharmacokinetic test in beagle dogs. The format is in vivo. The conditions noted are these: blood, beagle dog; for bioavailability: oral 10 mg/kg vs intravenous 5 mg/kg, read-out: F (%) bioavailability; for AUC(0-inf): single oral dose 10 mg/kg. The protocol:
(§1) The Example compound was dissolved in PBS containing 5% DMSO and 20% hydroxypropyl (HP) beta cyclodextrin, and administered intravenously to rats at a dose of 5 mg/kg, and the Example compound was suspended in distilled water containing 0.5% methylcellulose, and orally administered to rats at a dose of 10 mg/kg. The Example compound was dissolved in PBS containing 5% DMSO and 20% hydroxypropyl (HP) beta cyclodextrin, and administered intravenously to beagle dogs at a dose of 5 mg/kg, and the Example compound was suspended in distilled water containing 0.5% methylcellulose, and orally administered to beagle dogs at a dose of 10 mg/kg. Blood samples were collected at scheduled time points after the single intravenous and oral administration of the Example compound to normal rats and beagle dogs. Acetonitrile containing an internal standard material was added to the collected blood sample for protein precipitation. The sample extracted through protein precipitation was centrifuged, and then the supernatant was injected into LC-MS/MS to be subjected to quantitative analysis of the blood concentration of the Example compound. The AUC for each administration route was calculated based on the blood concentration-time profile obtained as a result above, and based on this, the bioavailability (F) upon oral administration was calculated.

In data set [2] the test system is indomethacin-induced gastric damage. Kind of data set: Gastric damage inhibitory efficacy in rat of indomethacin-induced gastric damage. The format is in vivo. The conditions noted are these: SD rats, 10 mg/kg oral 1 hour before indomethacin, 5 hours. The protocol: The experiment was performed as follows to evaluate the gastric ulcer inhibitory efficacy of the Example compound in rat models of gastric damage induced by indomethacin, a drug in the NSAID classes.
Among fasted male Sprague Dawley rats, the control group was orally administered with 0.5% methylcellulose solution, and the other groups were orally administered with the Example compound at a dose of 10 mg/10 mL/kg suspended in 0.5% methylcellulose solution.
In 1 hour after oral administration of the Example compound, indomethacin was orally administered, and after 5 hours, the test animals were sacrificed and the stomach was enucleated. After washing the enucleated surface of the stomach, the greater curvature of the stomach was incised. The incised stomach was spread out and fixed. Then, the ratio of the gastric damaged area was obtained by the total gastric area and the damaged area on the gastric mucosa surface using ImageJ software (NIH, Bethesda), and the % inhibitory activity of the Example compound was calculated according to the following Equation 3.
% inhibitory activity of Example compound=[(ratio of gastric damaged area in control group−ratio of gastric damaged area in group treated with Example compound)/(ratio of gastric damaged area in control group)]×100 [Equation 3]

For data set [3], the target named is T1, proton pump (H+/K+-ATPase) (Sus scrofa, UniProt P19156).
T1 construct: Gastric vesicles isolated from pig stomach were prepared according to the document; from tissue; host or cells: pig stomach (gastric vesicles)
T1 sequence (P19156 2-1034 limits assumed): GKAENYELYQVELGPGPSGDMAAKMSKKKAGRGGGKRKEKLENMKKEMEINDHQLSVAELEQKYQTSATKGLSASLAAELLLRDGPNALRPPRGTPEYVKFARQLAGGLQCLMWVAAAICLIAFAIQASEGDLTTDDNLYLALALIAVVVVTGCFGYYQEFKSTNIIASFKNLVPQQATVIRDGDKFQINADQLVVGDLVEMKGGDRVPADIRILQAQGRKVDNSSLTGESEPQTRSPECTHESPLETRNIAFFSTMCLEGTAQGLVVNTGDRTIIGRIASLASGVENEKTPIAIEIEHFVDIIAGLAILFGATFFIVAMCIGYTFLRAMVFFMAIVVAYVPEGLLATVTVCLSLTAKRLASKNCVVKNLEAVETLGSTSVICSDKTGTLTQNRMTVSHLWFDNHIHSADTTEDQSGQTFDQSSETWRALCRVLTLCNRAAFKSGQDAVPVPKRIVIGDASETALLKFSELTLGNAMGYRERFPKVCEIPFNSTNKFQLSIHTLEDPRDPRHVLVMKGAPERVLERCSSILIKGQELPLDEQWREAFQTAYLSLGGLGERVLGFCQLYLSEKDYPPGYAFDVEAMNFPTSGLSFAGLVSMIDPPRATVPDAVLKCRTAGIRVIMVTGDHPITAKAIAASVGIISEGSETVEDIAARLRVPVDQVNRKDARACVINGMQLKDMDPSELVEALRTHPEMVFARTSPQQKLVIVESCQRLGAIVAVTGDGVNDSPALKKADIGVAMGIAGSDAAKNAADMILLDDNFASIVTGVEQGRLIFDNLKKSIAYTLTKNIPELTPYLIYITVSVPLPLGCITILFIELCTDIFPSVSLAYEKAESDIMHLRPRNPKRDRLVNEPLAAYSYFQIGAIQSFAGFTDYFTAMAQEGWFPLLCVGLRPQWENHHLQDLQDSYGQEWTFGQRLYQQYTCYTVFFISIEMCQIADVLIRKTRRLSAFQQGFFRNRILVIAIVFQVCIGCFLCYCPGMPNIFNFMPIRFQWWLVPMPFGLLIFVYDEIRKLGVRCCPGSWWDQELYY
T1 sequence (P18434 whole entry partner): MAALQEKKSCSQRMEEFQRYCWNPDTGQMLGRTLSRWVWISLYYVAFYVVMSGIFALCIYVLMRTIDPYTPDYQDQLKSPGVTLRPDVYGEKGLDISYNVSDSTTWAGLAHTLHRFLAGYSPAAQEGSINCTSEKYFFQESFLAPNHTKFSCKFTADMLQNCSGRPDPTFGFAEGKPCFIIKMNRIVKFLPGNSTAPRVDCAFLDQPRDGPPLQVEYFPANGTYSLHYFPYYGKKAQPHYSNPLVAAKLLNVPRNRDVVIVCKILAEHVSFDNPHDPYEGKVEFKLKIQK
Briefly: Inhibitory activity on proton pump (H+/K+-ATPase), malachite green assay. The format is biochemical. Conditions: pig gastric vesicles, pH 6.5. The protocol:
The proton pump (H+/K+-ATPase) inhibitory activity of the prepared compound was measured as follows. Gastric vesicles isolated from pig stomach were prepared according to the document (see Methods Mol Biol. 2016; 1377:19-27). The protein contents of the gastric vesicles were quantified with a Bicinchoninic Acid (BCA) kit (Sigma Aldrich, BCA1). To each well of a 96-well plate, 70 μl of 50 mM Tris-HEPES buffer (pH 6.5) containing 125 ng of vesicles, DMSO or a substance for each concentration (final DMSO concentration of 1%), 5 mM MgCl2, and 10 mM KCl was added and pre-incubated at 37° C. for 30 minutes. Then, 10 μl of 2 mM ATP was added to each well, followed by enzymatic reaction at 37° C. for 40 minutes. The reaction was stopped by adding 20 μl of malachite green reagent (Sigma Aldrich, MAK307) and the resulting mixture was allowed to stand at room temperature for 30 minutes. By measuring the absorbance at 620 nm using a Microplate Reader (Biotek, Synergy H4), an amount of inorganic phosphorus released from ATP degradation was measured and the enzyme activity was measured. The absorbance of the enzyme-reacted sample without adding KCl was measured, and the measurement value was subtracted from all the above measurements. Assuming that the group treated with 1% DMSO (DMSO control group) was 100% H^+/K^+-ATPase enzyme activity, and that the group without KCl (KCl control group) was 0% H^+/K^+-ATPase enzyme activity, % inhibition was calculated as in the following Equation 1:
% inhibition=[1−(ODtreatment group−ODKCl control group)/(ODDMSO control group−ODKCl control group))]*100. [Equation 1]
IC50 was obtained by nonlinear regression analysis of GraphPad Prism7 program using % inhibition values for each concentration, and results thereof are shown in Table 2 below.

Data set [4] concerns basal gastric acid secretion. Kind of data set: Inhibition of basal gastric acid secretion in pylorus-ligated rat (Shay's rat model). The format is in vivo. The conditions noted are these: SD rats, 10 mg/kg oral 1 h before pylorus ligation, 5 hours after ligation. Here is the method: The inhibitory efficacy of the prepared compound on basal gastric acid secretion was measured by employing the Shay's rat model [Shay H, et al., Gastroenterology, 1945, 5, 43˜61].
Male Sprague Dawley (SD) rats were divided into 8 rats per group, and fasted with only water supply for 24 hours. Then, one hour before pylorus ligation, the control group was orally administered with 0.5% methylcellulose solution, and the other groups were orally administered with the Example compound at a dose of 10 mg/10 mL/kg suspended in 0.5% methylcellulose solution.
After 5 hours of ligation, the rats were sacrificed under Zoletil and Xylazine anesthesia, and the gastric contents were enucleated by incision of the abdominal cavity. The obtained contents were centrifuged at 3,000 rpm for 10 minutes to separate only the supernatant, and gastric juice was collected. 1 mL of the collected gastric juice was taken into a beaker and the pH was measured using an electrode pH meter. To 1 mL of gastric juice, 0.03 mL each of 0.5% dimethylaminoazobenzene alcohol solution and 1% phenolphthalein alcohol solution was added to make red color, and then 0.1N NaOH solution was added, wherein the volume until the rose tint appeared was determined as the total acidity, and the total acid output was obtained by multiplying the acidity of gastric juice by the amount of gastric juice. The % inhibitory activity of the Example compound was calculated according to the following Equation 2, and results thereof are shown in Table 6 below.
% inhibitory activity of Example compound=[(total gastric acid secretion in Control group−total gastric acid secretion in group treated with Example compound)/total gastric acid secretion in Control group]×100 [Equation 2]

A short description of data set [5]: Pharmacokinetic test in rats. The format is in vivo. Conditions: blood, rat; for bioavailability: oral 10 mg/kg vs intravenous 5 mg/kg, read-out: F (%) bioavailability; for AUC(0-inf): single oral dose 10 mg/kg. Here is the method:
as §1

For data set [6], the target named is human SSTR4 (Homo sapiens, UniProt P31391). Briefly: SSTR4 agonist effect (cell-based cAMP functional assay, HTRF). The conditions noted are these: CHO cells stably expressing human SSTR4, 37° C. 30 minutes, vs sst-14 10 nM. Here is the method: The agonism effect on SSTR4 was confirmed by cell-based cAMP functional assay. CHO cells in which human SSTR4 was stably expressed were treated with test substances for each concentration and reacted at 37° C. for 30 minutes, and an amount of the produced cAMP was measured by the HTRF detection method. The % response compared to the reference control agonist (sst-14, 10 nM) was calculated, and the EC50 was calculated through the concentration-response curve.
Sequence of human SSTR4 (P31391 whole entry): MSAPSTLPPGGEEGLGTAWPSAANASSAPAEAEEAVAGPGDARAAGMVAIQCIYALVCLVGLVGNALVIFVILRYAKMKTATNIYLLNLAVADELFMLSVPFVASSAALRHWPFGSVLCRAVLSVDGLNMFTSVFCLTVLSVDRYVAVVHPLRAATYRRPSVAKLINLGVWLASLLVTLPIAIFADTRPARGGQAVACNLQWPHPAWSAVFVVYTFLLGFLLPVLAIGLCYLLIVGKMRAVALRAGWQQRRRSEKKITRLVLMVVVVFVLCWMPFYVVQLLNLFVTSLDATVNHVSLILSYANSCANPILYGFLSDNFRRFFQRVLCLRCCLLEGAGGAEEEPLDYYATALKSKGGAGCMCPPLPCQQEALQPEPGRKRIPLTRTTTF
For orientation: TR-FRET usually uses a lanthanide donor and a delayed reading to cut background.

As to `CNCc1cn(S(=O)(=O)c2ccc(C)nc2)c(-c2ccc(F)cc2F)c1OC` [Example 3, 1-(5-(2,4-Difluorophenyl)-4-methoxy-1-((6-methylpyridin-3-yl)sulfonyl)-1H-pyrrol-3-yl)-N-methylmethanamine], in data set [1], the bioavailability (commonly the share of a dose that reaches the circulation, judged against a reference dose that is usually intravenous) came out at 83.8% and the AUC(0-inf) (usually the area under the concentration-time curve extrapolated to infinity) was 14500 ng·h/mL. In data set [2], the “Inhibitory Activity (%) on ratio of gastric damaged area” value is reported as “+++ (97% or more: +++)”. For the same compound, in data set [3], the IC50 (usually the midpoint of a concentration-inhibition curve) was ≤ 300 nM. In data set [4], the “Inhibitory Activity (%) on total gastric acid secretion” value was “+++ (90% or more: +++)” and the “pH of gastric juice” value was 8.08 ± 0.24. In data set [5], the bioavailability was 27.3% and the AUC(0-inf) was 275 ng·h/mL. In data set [6], the EC50 – broadly, the concentration that produces a half-maximal response – amounted to 3900 nM.
Turning to `CNCc1cn(S(=O)(=O)c2ccc(OC)nc2)c(-c2ccccc2F)c1OC` [Example 1, 1-(5-(2-Fluorophenyl)-4-methoxy-1-((6-methoxypyridin-3-yl)sulfonyl)-1H-pyrrol-3-yl)-N-methylmethanamine], in data set [1], the bioavailability was found to be 71.7% and the AUC(0-inf) turned out to be 10200 ng·h/mL. For the same compound, the “Inhibitory Activity (%) on ratio of gastric damaged area” value in data set [2] is recorded as “+++ (97% or more: +++)”. For the same compound, the IC50 in data set [3] was ≤ 300 nM. For the same compound, in data set [4], the “Inhibitory Activity (%) on total gastric acid secretion” value is “+++ (90% or more: +++)” and the “pH of gastric juice” value came to 8.25 ± 0.16. Moreover, in data set [5], the bioavailability was 22% and the AUC(0-inf) worked out at 253 ng·h/mL. This compound yielded an EC50 in data set [6] of 780 nM.
